Data as given in patent publication US8030498B2, “Benzoylpyrazole compounds and herbicides containing them” (Ishihara Sangyo Kaisha, Ltd., priority 2005, dated 2011).

Experiments:
greenfoxtail = experiment: Test Example 2: soil application on the day after sowing, growth inhibition rate, greenfoxtail; assay type: in vivo, Setaria viridis L.; conditions: 250 g/ha active ingredient, observed on 19th to 24th day
Text: (§1) Upland field soil was put into a 1/170,000 hectare pot, and seeds of various plants (barnyardgrass, crabgrass, greenfoxtail, redroot pigweed, prickly sida, velvetleaf, rice, wheat, corn and soybean) were sown. On the day after sowing, wettable powders or emulsifiable concentrates of the compounds of the present invention prepared in accordance with a conventional preparation method, were weighed so that the active ingredients became the prescribed amounts, and diluted with water in an amount corresponding to 500 liter per 1 hectare, followed by soil application with a small sprayer. On the 19th to 24th day after the application, the state of growth of the respective plants was visually observed, and the herbicidal effect was evaluated in accordance with a growth inhibition rate (%) of from 0 (equivalent to the non-treated area) to 100% (complete kill).

redroot pigweed = experiment: Test Example 2: soil application on the day after sowing, growth inhibition rate, redroot pigweed; assay type: in vivo, Amaranthus retroflexus L.; conditions: 250 g/ha active ingredient, observed on 19th to 24th day
Outline: (§2)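 Upland soil pots sown with crop and weed seeds; next day wettable powder or emulsifiable concentrate at prescribed active-ingredient amounts, diluted to 500 L/ha water, sprayed onto soil. Growth inhibition scored visually 19–24 days later, 0 (as untreated) to 100% (complete kill).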

prickly sida = experiment: Test Example 2: soil application on the day after sowing, growth inhibition rate, prickly sida; assay type: in vivo, Sida spinosa L.; conditions: 250 g/ha active ingredient, observed on 19th to 24th day
Text: as §1

rice = experiment: Test Example 2: soil application on the day after sowing, growth inhibition rate, rice; assay type: in vivo, Oryza sativa L.; conditions: 250 g/ha active ingredient, observed on 19th to 24th day
Text: as §1

barnyardgrass = experiment: Test Example 2: soil application on the day after sowing, growth inhibition rate, barnyardgrass; assay type: in vivo, Echinochloa crus-galli L.; conditions: 250 g/ha active ingredient, observed on 19th to 24th day
Text: as §1

[1] = tested on: barnyardgrass (Echinochloa crus-galli L.); experiment: Test Example 1: foliar treatment, growth inhibition rate, barnyardgrass; assay type: in vivo; conditions: 31 g/ha active ingredient, visually observed 17th to 23rd day after application
Outline: (§3)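 Seeds were sown in upland field soil in pots. At the target leaf stage (corn 2.0–3.5; greenfoxtail 1.0–3.0; rice 1.0–2.5; wheat 1.7–3.4), the formulated compound, diluted at a water volume of 500 L/ha with 0.1 vol % spreader, was applied by small sprayer. Plants were rated by eye on days 17–23.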

[2] = tested on: greenfoxtail (Setaria viridis L.); experiment: Test Example 1: foliar treatment, growth inhibition rate, greenfoxtail; assay type: in vivo; conditions: 31 g/ha active ingredient, visually observed 17th to 23rd day after application
Outline: (§4)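 Potted upland soil; compounds as wettable powders or emulsifiable concentrates diluted in water at 500 L/ha plus 0.1 vol % spreader, foliar-sprayed at defined leaf stages (rice 1.0–2.5, wheat 1.7–3.4, corn 2.0–3.5, greenfoxtail 1.0–3.0). Growth inhibition (0–100%) scored visually 17–23 days after application.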

corn (Zea mays L.) = experiment: Test Example 1: foliar treatment, growth inhibition rate, corn; assay type: in vivo; conditions: 31 g/ha active ingredient, visually observed 17th to 23rd day after application
Outline: as §4

[3] = tested on: redroot pigweed (Amaranthus retroflexus L.); experiment: Test Example 1: foliar treatment, growth inhibition rate, redroot pigweed; assay type: in vivo; conditions: 31 g/ha active ingredient, visually observed 17th to 23rd day after application
Outline: (§5)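 Visual scoring of growth inhibition, 0% (untreated) to 100% (complete kill), on days 17–23 following post-emergence spray of formulated compound in water (500 L/ha, 0.1 vol % spreader); plants treated at set leaf stages, e.g. corn 2.0–3.5, wheat 1.7–3.4.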

wheat = experiment: Test Example 2: soil application on the day after sowing, growth inhibition rate, wheat; assay type: in vivo, Triticum spp.; conditions: 250 g/ha active ingredient, observed on 19th to 24th day
Text: as §1

wheat (Triticum spp.) = experiment: Test Example 1: foliar treatment, growth inhibition rate, wheat; assay type: in vivo; conditions: 31 g/ha active ingredient, visually observed 17th to 23rd day after application
Outline: as §4

corn = experiment: Test Example 2: soil application on the day after sowing, growth inhibition rate, corn; assay type: in vivo, Zea mays L.; conditions: 250 g/ha active ingredient, observed on 19th to 24th day
Outline: as §2

crabgrass = experiment: Test Example 2: soil application on the day after sowing, growth inhibition rate, crabgrass; assay type: in vivo, Digitaria sanguinalis L.; conditions: 250 g/ha active ingredient, observed on 19th to 24th day
Outline: as §2

[4] = tested on: soybean (Glycine max Merr.); experiment: Test Example 1: foliar treatment, growth inhibition rate, soybean; assay type: in vivo; conditions: 31 g/ha active ingredient, visually observed 17th to 23rd day after application
Outline: as §5

[5] = tested on: crabgrass (Digitaria sanguinalis L.); experiment: Test Example 1: foliar treatment, growth inhibition rate, crabgrass; assay type: in vivo; conditions: 31 g/ha active ingredient, visually observed 17th to 23rd day after application
Outline: as §5

[6] = tested on: prickly sida (Sida spinosa L.); experiment: Test Example 1: foliar treatment, growth inhibition rate, prickly sida; assay type: in vivo; conditions: 31 g/ha active ingredient, visually observed 17th to 23rd day after application
Outline: as §5

velvetleaf = experiment: Test Example 2: soil application on the day after sowing, growth inhibition rate, velvetleaf; assay type: in vivo, Abutilon theophrasti MEDIC.; conditions: 250 g/ha active ingredient, observed on 19th to 24th day
Outline: as §2

rice (Oryza sativa L.) = experiment: Test Example 1: foliar treatment, growth inhibition rate, rice; assay type: in vivo; conditions: 31 g/ha active ingredient, visually observed 17th to 23rd day after application
Outline: as §4

[7] = tested on: velvetleaf (Abutilon theophrasti MEDIC.); experiment: Test Example 1: foliar treatment, growth inhibition rate, velvetleaf; assay type: in vivo; conditions: 31 g/ha active ingredient, visually observed 17th to 23rd day after application
Outline: as §3

soybean = experiment: Test Example 2: soil application on the day after sowing, growth inhibition rate, soybean; assay type: in vivo, Glycine max Merr.; conditions: 250 g/ha active ingredient, observed on 19th to 24th day
Text: as §1

SMILES	Growth inhibition rate (%) Greenfoxtail (greenfoxtail) [%]	Growth inhibition rate (%) redroot pigweed (redroot pigweed) [%]	Growth inhibition rate (%) Prickly sida (prickly sida) [%]	Growth inhibition rate (%) Rice (rice) [%]	Growth inhibition rate (%) Barnyardgrass (barnyardgrass) [%]	Growth inhibition rate (%) Barnyardgrass [1] [%]	Growth inhibition rate (%) Greenfoxtail [2] [%]	Growth inhibition rate (%) Corn (corn (Zea mays L.)) [%]	Growth inhibition rate (%) redroot pigweed [3] [%]	Growth inhibition rate (%) Wheat (wheat) [%]	Growth inhibition rate (%) Wheat (wheat (Triticum spp.)) [%]	Growth inhibition rate (%) Corn (corn) [%]	Growth inhibition rate (%) Crabgrass (crabgrass) [%]	Growth inhibition rate (%) Soybean [4] [%]	Growth inhibition rate (%) Crabgrass [5] [%]	Growth inhibition rate (%) Prickly sida [6] [%]	Growth inhibition rate (%) Velvetleaf (velvetleaf) [%]	Growth inhibition rate (%) Rice (rice (Oryza sativa L.)) [%]	Growth inhibition rate (%) Velvetleaf [7] [%]	Growth inhibition rate (%) Soybean (soybean) [%]	further results
CCSC(=O)Oc1c(C(=O)c2ccc(S(C)(=O)=O)c(OCC3CCCCO3)c2C)cnn1C (stereo not drawn) [compound 215]	70	60	40	90	90	100	70	30	95	0	0	0	95	95	60	50	0	70	50	–	–
COC(=O)c1c(S(C)(=O)=O)ccc(C(=O)c2cnn(C)c2OC(=O)SC)c1Cl [compound 29]	40	–	60	10	50	80	50	10	70	0	0	0	10	60	50	60	50	40	65	40	–
CCSC(=O)Oc1c(C(=O)c2ccc(S(C)(=O)=O)c(C(=O)SC)c2Cl)cnn1C [compound 31]	70	60	70	60	60	100	80	60	70	0	0	0	65	50	30	70	60	60	60	–	–
CCSC(=O)Oc1c(C(=O)c2ccc(S(C)(=O)=O)c(COCC(F)(F)F)c2C)cnn1C [compound 69]	50	100	70	70	70	95	95	50	85	0	0	0	95	98	98	70	70	80	95	–	–
CCSC(=O)Oc1c(C(=O)c2ccc(S(C)(=O)=O)c(OCC(OC)OC)c2C)cnn1C [Compound No. 209, 5-(ethylthio)carbonyloxy-1-methylpyrazol-4-yl 3-(2,2-dimethoxyethoxy)-2-methyl-4-(methylsulfonyl)phenyl ketone]	–	–	–	–	–	–	–	–	98	–	–	–	–	100	–	90	–	–	–	–	inhibition at 250 g/ha (greenfoxtail; Setaria viridis): 100%; inhibition at 250 g/ha (redroot pigweed; Amaranthus retroflexus): 95%; inhibition at 250 g/ha (prickly sida; Sida spinosa): 30%; inhibition at 250 g/ha (rice; Oryza sativa): 90%; inhibition at 250 g/ha (barnyardgrass; Echinochloa crus-galli): 95%; pest or weed control at 31 g/ha ([1]; Echinochloa crus-galli): 100%; pest or weed control at 31 g/ha ([2]; Setaria viridis): 98%; pest or weed control at 31 g/ha (corn (Zea mays L.); Zea mays): 0%; inhibition at 250 g/ha (wheat; Triticum aestivum): 20%; pest or weed control at 31 g/ha (wheat (Triticum spp.); Triticum): 0%; inhibition at 250 g/ha (corn; Zea mays): 0%; inhibition at 250 g/ha (crabgrass; Digitaria sanguinalis): 95%; pest or weed control at 31 g/ha ([5]; Digitaria sanguinalis): 95%; inhibition at 250 g/ha (velvetleaf; Abutilon theophrasti): 50%; pest or weed control at 31 g/ha (rice (Oryza sativa L.); Oryza sativa): 95%; pest or weed control at 31 g/ha ([7]; Abutilon theophrasti): 100%
CCn1ncc(C(=O)c2ccc(S(C)(=O)=O)c(C(=O)OC)c2C)c1OC(=O)SC [compound 4]	70	100	70	70	80	95	100	5	–	0	50	0	100	95	95	80	60	100	95	50	–
